Reference: patent publication US20090203783A1, “THERAPEUTIC AGENT FOR ACUTE CEREBRAL INFARCT” (ONO PHARMACEUTICAL CO., LTD., priority 2005, published 2009)

Experiments:
Assay type in all cases: in vivo, human
[1] = system: patients of acute cerebral infarction; assay: Example 1 clinical trial, modified Rankin Scale (mRS); conditions: 10 mg/kg/hr iv, 5 days, after 3 months, administration 5.5 to 6 hours from onset
Experimental: (§1) As a clinical trial, a double blind placebo-controlled parallel group study was carried out under the following conditions with patients of acute cerebral infarction as the object.
(c) A patient who undergoes randomization by the study within 6 hours from the first infarction symptom and undergoes the first administration by the blind test (When the patient awoke under an infarction symptom which was not observed before sleeping, start of the infarction symptom is regarded as the started time of sleeping. When the started time is not clear, start of the infarction symptom is regarded as the time when the patient was lastly normal.);
(f) A patient defined as a score of from 11 to 22 on NIH Stroke Scale, within 1 hour before the first administration;
(§2) A total of 5 times for one hour intravenous continuous administration at intervals of about 24 hours in each group (administration period: 5 days).
(§3) Evaluation method: Symptoms of patients were evaluated in accordance with the aforementioned list of marks of NIH Stroke Scale, about 1 month after or about 3 months after the commencement of administration. (2) Modified Rankin Scale (mRS) Evaluation method: Symptoms of patients were scored by classifying the symptoms of patients into the following grades of from 0 to 5, about 1 month after or about 3 months after the commencement of administration. 0: No symptoms at all. 1: No significant disability despite symptoms; able to carry out all usual duties and activities. 2: Slight disability; unable to carry out all previous activities, but able to look after own affairs without assistance. 3: Moderate disability; requiring some help, but able to walk without assistance. 4: Moderately severe disability; unable to walk without assistance and unable to attend to own bodily needs without assistance. 5: Severe disability; bedridden, incontinent and requiring constant nursing care and attention.

[2] = system: patients of acute cerebral infarction; assay: Example 1 clinical trial, Stroke Impact Scale (SIS) items 1a-1d, 4a; conditions: about 3 months, 5 hours or more from onset
Experimental: as §1, §2
Based on the results of the above-mentioned efficacy evaluation items and safety evaluation items, therapeutic effect of the intravenous continuous administration of (2R)-2-propyloctanoic acid to cerebral infarction patients was evaluated. Additionally, in order to examine the therapeutic effect more in detail, improving effect of the intravenous continuous administration of (2R)-2-propyloctanoic acid for each of (a) [Arm strength], (b) [Grip], (c) strength of the legs [Leg], (d) strength of the ahead of the ankle [Ankle/foot], and (e) language [Naming] was evaluated after about 3 months from the commencement of administration, using the items 1a, 1b, 1c, Id and 4a of the Stroke Impact Scale (SIS). In this connection, the Stroke Impact Scale is a conventionally known evaluation method and can be obtained from an internet <URL: www.chrp.org/, www.strokecenter.org, www2.kumc.edu/coa/> and the like. Specifically, the evaluation of 1a, 1b, 1c and id is carried out by a mode of selecting any one of the answers, A lot of strength, Quite a bit of strength, Some strength, A little strength and No strength at all, for the following questions
and five scores, four scores, 3 scores, 2 scores and 1 score are given in response to the respective answers.
Additionally, the evaluation of 4a is carried out by a mode of selecting any one of the answers, Not difficult at all, A little difficult, Somewhat difficult and Very difficult and Extremely difficult, for the following questions
In this case, the group P represents a placebo administration group, and the group L represents a (2R)-2-propyloctanoic acid 4 mg/kg/hr administration group, and the group H represents a (2R)-2-propyloctanoic acid 10 mg/kg/hr administration group. The evaluation result of each item was shown by a form of “(the number of patients having an evaluation score of 4 or more)/(the number of patients evaluated)”.

[3] = system: patients of acute cerebral infarction; assay: Example 1 clinical trial, safety (adverse events); conditions: 4 or 10 mg/kg/hr iv, 5 days
Experimental: as §1, §2
(§4) Frequency of adverse event and contents thereof (symptom, causal relation and the like)

[4] = system: patients of acute cerebral infarction; assay: Example 2 clinical trial, modified Rankin Scale (mRS); conditions: 7 days
Experimental: as §3
(§5) As a clinical trial, a double blind placebo-controlled parallel group study was carried out under the following conditions using patients of acute cerebral infarction as the object.
(e) A patient whose period of time from the onset of cerebral infarction until commencement of administration is 72 hour or less;
(§6) A total of 7 times for one hour intravenous continuous administration at intervals of about 24 hours in each group (administration period: 7 days).
(§7) Symptoms of patients were evaluated after about 1 month or after about 3 months from the commencement of the administration, in accordance with the methods described in the aforementioned [EFFICACY EVALUATION ITEMS] of Example 1.

[5] = system: patients of acute cerebral infarction; assay: Example 2 clinical trial, safety (adverse events); conditions: 0.4, 4 or 8 mg/kg/hr iv, 7 days
Experimental: as §5, §6, §4

[6] = system: patients of acute cerebral infarction; assay: Example 3 clinical trial, efficacy evaluation items; conditions: 7 days
Experimental: as §5, §6, §7

[7] = system: patients of acute cerebral infarction; assay: Example 3 clinical trial, safety (adverse events); conditions: 8 or 12 mg/kg/hr iv, 7 days
Experimental: as §5, §6, §4

CCCCCC[C@@H](CCC)C(=O)O [(2R)-2-propyloctanoic acid]
ratio of the number of patients whose mRS scores became 0 to 3 [1]: 31.5% | ratio of the number of patients whose mRS scores became 0 to 3 ([1]; patients of less than 80 years, NIH Stroke Scale 11 to 18): 46.0% | ratio of the number of patients whose mRS scores became 0 to 3 ([1]; patients of less than 80 years): 39.0% | SIS Ankle/foot: (number of patients having an evaluation score of 4 or more)/(number of patients evaluated) ([2]; Group H, 10 mg/kg/hr): 60/100 | SIS Ankle/foot: ratio of patients with evaluation score of 4 or more ([2]; Group H, 10 mg/kg/hr): (60%) | SIS Arm strength: (number of patients having an evaluation score of 4 or more)/(number of patients evaluated) ([2]; Group H, 10 mg/kg/hr): 44/100 | SIS Arm strength: ratio of patients with evaluation score of 4 or more ([2]; Group H, 10 mg/kg/hr): (44%) | SIS Grip: (number of patients having an evaluation score of 4 or more)/(number of patients evaluated) ([2]; Group H, 10 mg/kg/hr): 46/100 | SIS Grip: ratio of patients with evaluation score of 4 or more ([2]; Group H, 10 mg/kg/hr): (46%) | SIS Leg: (number of patients having an evaluation score of 4 or more)/(number of patients evaluated) ([2]; Group H, 10 mg/kg/hr): 59/100 | SIS Leg: ratio of patients with evaluation score of 4 or more ([2]; Group H, 10 mg/kg/hr): (59%) | SIS Naming: (number of patients having an evaluation score of 4 or more)/(number of patients evaluated) ([2]; Group H, 10 mg/kg/hr): 65/100 | SIS Naming: ratio of patients with evaluation score of 4 or more ([2]; Group H, 10 mg/kg/hr): (65%) | SIS Ankle/foot: (number of patients having an evaluation score of 4 or more)/(number of patients evaluated) ([2]; Group L, 4 mg/kg/hr): 39/88 | SIS Ankle/foot: ratio of patients with evaluation score of 4 or more ([2]; Group L, 4 mg/kg/hr): (44%) | SIS Arm strength: (number of patients having an evaluation score of 4 or more)/(number of patients evaluated) ([2]; Group L, 4 mg/kg/hr): 34/88 | SIS Arm strength: ratio of patients with evaluation score of 4 or more ([2]; Group L, 4 mg/kg/hr): (39%) | SIS Grip: (number of patients having an evaluation score of 4 or more)/(number of patients evaluated) ([2]; Group L, 4 mg/kg/hr): 36/88 | SIS Grip: ratio of patients with evaluation score of 4 or more ([2]; Group L, 4 mg/kg/hr): (41%) | SIS Leg: (number of patients having an evaluation score of 4 or more)/(number of patients evaluated) ([2]; Group L, 4 mg/kg/hr): 46/88 | SIS Leg: ratio of patients with evaluation score of 4 or more ([2]; Group L, 4 mg/kg/hr): (52%) | SIS Naming: (number of patients having an evaluation score of 4 or more)/(number of patients evaluated) ([2]; Group L, 4 mg/kg/hr): 58/88 | SIS Naming: ratio of patients with evaluation score of 4 or more ([2]; Group L, 4 mg/kg/hr): (66%) | severe adverse events having a different frequency between drug group and placebo group [3]: not found | side effect in which its frequency increases depending on the dose [3]: not found | ratio of mRS occupying 0 to 2 ([4]; 0.4 mg/kg/hr iv, after 3 months, JCS I-1 to I-3 and NIH Stroke Scale 7 or more): 48.1% | ratio of mRS occupying 0 to 2 ([4]; 4 mg/kg/hr iv, after 3 months, JCS I-1 to I-3 and NIH Stroke Scale 7 or more): 47.9% | ratio of mRS occupying 0 to 2 ([4]; 8 mg/kg/hr iv, after 1 month): 45.7% | ratio of mRS occupying 0 to 2 ([4]; 8 mg/kg/hr iv, after 3 months): 58.1% | ratio of mRS occupying 0 to 2 ([4]; 8 mg/kg/hr iv, after 3 months, JCS I-1 to I-3 and NIH Stroke Scale 7 or more): 63.0% | ratio of mRS occupying 0 to 2 ([4]; 8 mg/kg/hr iv, after 3 months, patients with JCS I-1 to I-3 before administration): 69.1% | severe adverse event having a different frequency between drug group and placebo group [5]: not found | side effect in which its frequency increases depending on the dose [5]: not found | improving effects of the items shown in the efficacy evaluation items ([6]; 8 mg/kg/hr iv): excellent improving effects | improving effects of the items shown in the efficacy evaluation items ([6]; 12 mg/kg/hr iv): excellent improving effects | severe adverse event having a different frequency between drug group and placebo group [7]: not found | side effect in which its frequency increases depending on the dose [7]: not found
